Literature values as cited in paper PMC7395068, “The evolution of strategies to minimise the risk of human drug-induced liver injury (DILI) in drug discovery and development” (Archives of Toxicology, 2020).
Like-named read-outs stand apart in the source and are kept apart here.

Columns and labels:
[1] = cited from earlier work
rBsep = conditions: In vitro Assay; ref Dawson 2012; cited from earlier work
[2] = test system: THLE-Null and THLE-3A4 cells; conditions: In vitro Assay; ref Gustafsson 2014; cited from earlier work
[3] = test system: primary human hepatocytes, NIH3T3 fibroblasts, BSEP, CYP3A4; conditions: In vitro Assay; ref Schadt 2015; cited from earlier work
[4] = test system: HepG2 cells, primary human hepatocytes; conditions: In vitro Assay; ref Garside 2014; cited from earlier work
PHH spheroids = conditions: In vitro Assay; ref Vorrink 2018; cited from earlier work
[5] = test system: isolated mouse liver mitochondria; conditions: In vitro Assay; ref Porceddu 2012; cited from earlier work
[6] = ref Chen 2016; cited from earlier work
human hepatocytes = conditions: In vitro Assay; ref Xu 2008; cited from earlier work
HepG2 cells = conditions: In vitro Assay; ref O'Brien 2006; cited from earlier work

Compound	In vivo DILI ([1]; ref Dawson 2012)	In vivo DILI ([1]; ref Garside 2014)	In vivo DILI ([1]; ref Gustafsson 2014)	Inhibition of rBsep cutoff<1& cmax u>.2 (rBsep)	Inhibition of rBsep cutoff<3 (rBsep)	THLE-Null [2]	THLE-Null/3A4 [2]	Cluster 1-6 +VE Assay [4]	In vivo DILI ([1]; ref Vorrink 2018)	hLiMTs ATP <20 x Cmax (PHH spheroids)	In vivo DILI ([1]; ref Xu 2008)	DILI +VE (5-8), DILI -VE (-4) [6]	DILI severity category [6]	Structural based (HCI) (human hepatocytes)	further results
O=C(O)[C@H]1/C(=C/CO)O[C@@H]2CC(=O)N21 [clavulanate]	+VE	+VE	+VE	-VE	-VE	-VE	-VE	-VE							In vivo DILI ([1]; […]): -VE; In vivo DILI ([1]; ref Schadt 2015): +VE; Cellular toxicity (3T3 cells) [3]: -VE; Combined Assay [3]: -VE; GSH adduct HML [3]: -VE; Hepatocyte cellular toxicity [3]: -VE; MitoTox 3T3 [3]: -VE; TDI CYP3A4 [3]: -VE; hBSEP inhibition [3]: -VE
NNc1nnc(NN)c2ccccc12 [dihydralazine]	+VE	+VE	+VE	-VE	-VE	-VE	-VE	+VE	+VE	+VE (IC20 < 20 × Cmax.tot cut-off)					
CCN(CC)C(=S)SSC(=S)N(CC)CC [disulfiram]						+VE		+VE		+VE (IC20 < 20 × Cmax.tot cut-off)					in vitro data EC2<=1x Cmax [5]: +VE
NCCc1ccc(O)c(O)c1 [dopamine]	-VE	-VE	-VE	-VE	-VE	-VE	-VE	-VE	-VE	-VE	-VE	-VE	vNo-DILI-Concern	-VE	
O=C(OCC(O)CO)c1ccccc1Nc1ccnc2cc(Cl)ccc12 (stereo not drawn) [glafenine]	+VE	+VE	+VE	+VE	+VE	-VE	+VE	+VE	+VE	-VE	+VE	+VE	vMost-DILI-Concern	-VE	In vivo DILI ([1]; […]): +VE
Cc1ccc(S(=O)(=O)NC(=O)NN2CC3CCCC3C2)cc1 (stereo not drawn) [gliclazide]	+VE	+VE	+VE	-VE	-VE	-VE	-VE	-VE			-VE			-VE	
CN(C)CCN(Cc1cccs1)c1ccccn1 [methapyrilene]	-VE	-VE	-VE			-VE		-VE	-VE	-VE					In vivo DILI ([1]; ref O'Brien 2006): +VE; Structural based (HCI) (HepG2 cells): +VE
CC(=O)Nc1ccc(OCC(O)CNC(C)C)cc1 (stereo not drawn) [practolol]				-VE	-VE	-VE		-VE		-VE					
CCCN(CCC)S(=O)(=O)c1ccc(C(=O)O)cc1 [probenecid]	+VE	+VE	+VE	-VE	-VE	-VE	-VE	+VE				-VE	Ambiguous DILI-concern		In vivo DILI ([1]; ref Schadt 2015): -VE; Cellular toxicity (3T3 cells) [3]: -VE; Combined Assay [3]: -VE; GSH adduct HML [3]: -VE; Hepatocyte cellular toxicity [3]: -VE; MitoTox 3T3 [3]: -VE; TDI CYP3A4 [3]: -VE; hBSEP inhibition [3]: -VE
